# In US9707305B2, “Formulas for diagnosing and treating hormone-dependent cancers and cancers of the organs responsible for steroid hormone synthesis” (Commissariat à l'énergie atomique et aux énergies …, priority 2011, dated 2017):
# What was measured:
# [1] = Biodistribution of the nano-emulsion of Example 1.1 (radioactivity and fluorescence per organ); format: in vivo
# Description: (§1) In the following examples, the radioactivity was counted with the TRiCarb Counter (Ref: Packard, Liquid Scintillation Analyzers; Models 2200CA).
# (§2) Fluobeam 700 (Fluoptics) is the apparatus with which the whole of the organs from the biodistribution were analyzed in fluorescence as well as the one with which the biodistribution kinetics of the nano-emulsions were established in vivo. This imaging system allows viewing of the fluorescence in spectral bands from 700 to 850 nm for a 650 nm excitation. The apparatus consists of an electric case containing the laser of class 3B, its power supply and an optical head containing the CCD camera.
# The nano-emulsions of Example 1 were injected into FVB female and male mice. As a comparison, a mixture of three tracers ([3H]CHE, [14C]CO and DiD) (not formulated as a nano-emulsion) was injected in order to observe the distribution of the tracers in the absence of droplets being used as a distribution carrier.
# Tables 6 to 14 provide the biodistribution results of each tracer ([3H]CHE, [14C]CO and DiD) expressed as a percentage of the dose injected per gram of tissue (or [3H]CHE and [14C]CO) or as fluorescence intensity (for DiD) depending on the organ of the mouse, 15 minutes (Table 6), 2 hours (Table 7), 4 hours (Table 8), 6 hours (Table 9), 16 hours (Table 10), 24 hours (Table 11), 72 hours (Table 12), 120 hours (Table 13) and 168 hours (Table 14), after injection into an FVB female mouse of the nano-emulsion of Example 1.1. (nano-emulsion according to the invention comprising the three tracers ([3H]CHE, [14C]CO and DiD).
# [2] = Biodistribution of the mixture of three free tracers (not formulated as nano-emulsion), comparative; format: in vivo; details: FVB female mouse
# Description: as §1, §2
# As a comparison, a mixture of three tracers ([3H]CHE, [14C]CO and DiD) (not formulated as a nano-emulsion) was injected in order to observe the distribution of the tracers in the absence of droplets being used as a distribution carrier.
# [3] = 48 h (Table 11 head) after injection of nano-emulsion of Example 1.1, FVB female mouse
# [4] = 72 h after injection of nano-emulsion of Example 1.1, FVB female mouse
# [5] = 120 h after injection of nano-emulsion of Example 1.1, FVB female mouse
# [6] = 2 h after injection of free tracers (not nano-emulsion)
# [7] = 6 h after injection of free tracers (not nano-emulsion)
# [8] = 16 h after injection of free tracers (not nano-emulsion)
# [9] = 24 h after injection of free tracers (not nano-emulsion)
compound,measurement,setting,value
"CCCCCCCC/C=C\CCCCCCC[14C](=O)O[C@H]1CC[C@@]2(C)C(=CC[C@H]3[C@@H]4CC[C@H]([C@H](C)CCCC(C)C)[C@@]4(C)CC[C@@H]32)C1 [[14C]CO, cholesteryl oleate]","biodistribution, Muscle (MEAN)",[1]; [3],0.34 % of injected dose per gram of
same,"biodistribution, Ovary (MEAN)",[1]; [3],6.46 % of injected dose per gram of
same,"biodistribution, Pancreas (MEAN)",[1]; [3],0.70 % of injected dose per gram of
same,"biodistribution, Salivary glands (MEAN)",[1]; [3],1.20 % of injected dose per gram of
same,"biodistribution, Spleen (MEAN)",[1]; [3],1.03 % of injected dose per gram of
same,"biodistribution, Uterus (MEAN)",[1]; [3],1.24 % of injected dose per gram of
same,"biodistribution, Adrenal glands (MEAN)",[1]; [4],9.36 % of injected dose per gram of
same,"biodistribution, Brain (MEAN)",[1]; [4],0.10 % of injected dose per gram of
same,"biodistribution, Fat (MEAN)",[1]; [4],5.01 % of injected dose per gram of
same,"biodistribution, Heart (MEAN)",[1]; [4],0.64 % of injected dose per gram of
same,"biodistribution, Intestine (MEAN)",[1]; [4],0.62 % of injected dose per gram of
same,"biodistribution, Kidney (MEAN)",[1]; [4],0.66 % of injected dose per gram of
same,"biodistribution, Liver (MEAN)",[1]; [4],0.75 % of injected dose per gram of
same,"biodistribution, Lungs (MEAN)",[1]; [4],0.88 % of injected dose per gram of
same,"biodistribution, Muscle (MEAN)",[1]; [4],0.28 % of injected dose per gram of
same,"biodistribution, Ovary (MEAN)",[1]; [4],3.04 % of injected dose per gram of
same,"biodistribution, Pancreas (MEAN)",[1]; [4],0.50 % of injected dose per gram of
same,"biodistribution, Salivary glands (MEAN)",[1]; [4],1.16 % of injected dose per gram of
same,"biodistribution, Spleen (MEAN)",[1]; [4],0.75 % of injected dose per gram of
same,"biodistribution, Uterus (MEAN)",[1]; [4],1.00 % of injected dose per gram of
same,"biodistribution, Fat (MEAN)",[1]; [5],2.42 % of injected dose per gram of
same,"biodistribution, Kidney (MEAN)",[1]; [5],0.40 % of injected dose per gram of
same,"biodistribution, Adrenal glands (MEAN)",[2]; [6],3.25 % of injected dose per gram of
same,"biodistribution, Brain (MEAN)",[2]; [6],0.23 % of injected dose per gram of
same,"biodistribution, Fat (MEAN)",[2]; [6],0.69 % of injected dose per gram of
same,"biodistribution, Heart (MEAN)",[2]; [6],0.59 % of injected dose per gram of
same,"biodistribution, Intestine (MEAN)",[2]; [6],0.76 % of injected dose per gram of
same,"biodistribution, Kidney (MEAN)",[2]; [6],0.89 % of injected dose per gram of
same,"biodistribution, Liver (MEAN)",[2]; [6],4.79 % of injected dose per gram of
same,"biodistribution, Lung (MEAN)",[2]; [6],72.86 % of injected dose per gram of
same,"biodistribution, Muscle (MEAN)",[2]; [6],0.38 % of injected dose per gram of
same,"biodistribution, Ovary (MEAN)",[2]; [6],1.57 % of injected dose per gram of
same,"biodistribution, Pancreas (MEAN)",[2]; [6],0.47 % of injected dose per gram of
same,"biodistribution, Salivary gland (MEAN)",[2]; [6],0.74 % of injected dose per gram of
same,"biodistribution, Spleen (MEAN)",[2]; [6],3.65 % of injected dose per gram of
same,"biodistribution, Uterus (MEAN)",[2]; [6],0.49 % of injected dose per gram of
same,"biodistribution, Adrenal glands (MEAN)",[2]; [7],3.56 % of injected dose per gram of
same,"biodistribution, Brain (MEAN)",[2]; [7],0.26 % of injected dose per gram of
same,"biodistribution, Fat (MEAN)",[2]; [7],1.05 % of injected dose per gram of
same,"biodistribution, Heart (MEAN)",[2]; [7],1.21 % of injected dose per gram of
same,"biodistribution, Intestine (MEAN)",[2]; [7],1.21 % of injected dose per gram of
same,"biodistribution, Kidney (MEAN)",[2]; [7],1.36 % of injected dose per gram of
same,"biodistribution, Liver (MEAN)",[2]; [7],5.53 % of injected dose per gram of
same,"biodistribution, Lung (MEAN)",[2]; [7],142.66 % of injected dose per gram of
same,"biodistribution, Muscle (MEAN)",[2]; [7],0.53 % of injected dose per gram of
same,"biodistribution, Ovary (MEAN)",[2]; [7],2.12 % of injected dose per gram of
same,"biodistribution, Pancreas (MEAN)",[2]; [7],0.76 % of injected dose per gram of
same,"biodistribution, Salivary gland (MEAN)",[2]; [7],1.15 % of injected dose per gram of
same,"biodistribution, Spleen (MEAN)",[2]; [7],3.53 % of injected dose per gram of
same,"biodistribution, Uterus (MEAN)",[2]; [7],0.46 % of injected dose per gram of
same,"biodistribution, Adrenal gland (MEAN)",[2]; [8],4.24 % of injected dose per gram of
same,"biodistribution, Brain (MEAN)",[2]; [8],0.30 % of injected dose per gram of
same,"biodistribution, Fat (MEAN)",[2]; [8],1.39 % of injected dose per gram of
same,"biodistribution, Heart (MEAN)",[2]; [8],1.87 % of injected dose per gram of
same,"biodistribution, Intestine (MEAN)",[2]; [8],1.09 % of injected dose per gram of
same,"biodistribution, Kidney (MEAN)",[2]; [8],1.82 % of injected dose per gram of
same,"biodistribution, Liver (MEAN)",[2]; [8],11.86 % of injected dose per gram of
same,"biodistribution, Lung (MEAN)",[2]; [8],261.87 % of injected dose per gram of
same,"biodistribution, Muscle (MEAN)",[2]; [8],0.43 % of injected dose per gram of
same,"biodistribution, Ovary (MEAN)",[2]; [8],1.64 % of injected dose per gram of
same,"biodistribution, Pancreas (MEAN)",[2]; [8],1.00 % of injected dose per gram of
same,"biodistribution, Salivary gland (MEAN)",[2]; [8],1.29 % of injected dose per gram of
same,"biodistribution, Spleen (MEAN)",[2]; [8],5.32 % of injected dose per gram of
same,"biodistribution, Uterus (MEAN)",[2]; [8],1.00 % of injected dose per gram of
same,"biodistribution, Adrenal gland (MEAN)",[2]; [9],2.60 % of injected dose per gram of
same,"biodistribution, Brain (MEAN)",[2]; [9],0.22 % of injected dose per gram of
same,"biodistribution, Fat (MEAN)",[2]; [9],1.64 % of injected dose per gram of
same,"biodistribution, Heart (MEAN)",[2]; [9],0.82 % of injected dose per gram of
same,"biodistribution, Intestine (MEAN)",[2]; [9],0.81 % of injected dose per gram of
same,"biodistribution, Kidney (MEAN)",[2]; [9],1.02 % of injected dose per gram of
same,"biodistribution, Liver (MEAN)",[2]; [9],3.29 % of injected dose per gram of
same,"biodistribution, Lung (MEAN)",[2]; [9],29.91 % of injected dose per gram of
same,"biodistribution, Muscle (MEAN)",[2]; [9],0.79 % of injected dose per gram of
same,"biodistribution, Ovary (MEAN)",[2]; [9],1.40 % of injected dose per gram of
same,"biodistribution, Pancreas (MEAN)",[2]; [9],0.95 % of injected dose per gram of
same,"biodistribution, Salivary gland (MEAN)",[2]; [9],0.86 % of injected dose per gram of
same,"biodistribution, Spleen (MEAN)",[2]; [9],2.27 % of injected dose per gram of
same,"biodistribution, Uterus (MEAN)",[2]; [9],0.62 % of injected dose per gram of
same,accumulation of the free radioactive tracers in the lungs,"[2]; Tables 2 to 5 (2 to 24 h), free tracers",strong accumulation
